Source: PubChem BioAssay (NCI)
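Cultured in 96-well plates, cells were exposed to test compound for 48 hours across five concentrations. GI50 = concentration required for 50% inhibition of growth. At the TGI there is no net growth.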

Columns and labels:
Assay in all cases: growth of human tumour cells (NCI), 48 h
HCT-15 colon = test system: HCT-15 colon
LOX IMVI melanoma = test system: LOX IMVI melanoma
OVCAR-5 ovarian = test system: OVCAR-5 ovarian
PC-3 prostate = test system: PC-3 prostate
RPMI-8226 leukemia = test system: RPMI-8226 leukemia
SK-MEL-28 melanoma = test system: SK-MEL-28 melanoma
SK-MEL-5 melanoma = test system: SK-MEL-5 melanoma
SN12C renal = test system: SN12C renal
TK-10 renal = test system: TK-10 renal
U251 CNS = test system: U251 CNS

CCCCCCCCCCCCCC(=O)NO
TGI (HCT-15 colon): 26.2 µM
TGI (LOX IMVI melanoma): 15.5 µM
TGI (OVCAR-5 ovarian): > 74.1 µM
TGI (PC-3 prostate): 28.6 µM
TGI (RPMI-8226 leukemia): > 100 µM
TGI (SK-MEL-28 melanoma): 75.8 µM
TGI (SK-MEL-5 melanoma): 26.5 µM
TGI (SN12C renal): 38.9 µM
TGI (TK-10 renal): 59.4 µM
TGI (U251 CNS): 33.8 µM

O=c1oc2ccc(I)cc2c(=O)n1-c1ccc(I)cc1F
GI50 (HCT-15 colon): 0.704 µM
TGI (HCT-15 colon): 10.5 µM
GI50 (LOX IMVI melanoma): 0.532 µM
TGI (LOX IMVI melanoma): 4.66 µM
GI50 (OVCAR-5 ovarian): 3.93 µM
TGI (OVCAR-5 ovarian): > 100 µM
GI50 (PC-3 prostate): 2.23 µM
TGI (PC-3 prostate): 7.35 µM
GI50 (RPMI-8226 leukemia): 0.366 µM
TGI (RPMI-8226 leukemia): 1.99 µM
GI50 (SK-MEL-28 melanoma): 0.358 µM
TGI (SK-MEL-28 melanoma): 1.9 µM
GI50 (SK-MEL-5 melanoma): 0.258 µM
TGI (SK-MEL-5 melanoma): 0.747 µM
GI50 (SN12C renal): 0.404 µM
TGI (SN12C renal): 6.49 µM
GI50 (TK-10 renal): 1.42 µM
TGI (TK-10 renal): 11.8 µM
GI50 (U251 CNS): 0.612 µM
TGI (U251 CNS): > 45.3 µM

O=C(Nc1cccc(-n2ccc3c(NC(=O)c4ccccc4)nccc32)c1)c1ccc(Cl)c(Cl)c1
GI50 (HCT-15 colon): 0.0879 µM
TGI (HCT-15 colon): 1.31 µM
GI50 (LOX IMVI melanoma): 0.219 µM
TGI (LOX IMVI melanoma): 1.57 µM
GI50 (OVCAR-5 ovarian): 0.476 µM
TGI (OVCAR-5 ovarian): 1.71 µM
GI50 (PC-3 prostate): 0.0965 µM
TGI (PC-3 prostate): 1.52 µM
GI50 (RPMI-8226 leukemia): 0.263 µM
TGI (RPMI-8226 leukemia): 1.16 µM
GI50 (SK-MEL-28 melanoma): 0.298 µM
TGI (SK-MEL-28 melanoma): 2.06 µM
GI50 (SK-MEL-5 melanoma): 0.0719 µM
TGI (SK-MEL-5 melanoma): 0.347 µM
GI50 (SN12C renal): 0.38 µM
TGI (SN12C renal): 1.78 µM
GI50 (TK-10 renal): 0.865 µM
TGI (TK-10 renal): 2.28 µM
GI50 (U251 CNS): 0.0875 µM
TGI (U251 CNS): 1.6 µM

CCCn1cc(/C=N\N=C2\C(=O)Nc3ccc(C)cc32)c2ccccc21
GI50 (HCT-15 colon): 2.63 µM
TGI (HCT-15 colon): 42.2 µM
GI50 (LOX IMVI melanoma): 1.26 µM
TGI (LOX IMVI melanoma): 3.06 µM
GI50 (OVCAR-5 ovarian): 4.04 µM
TGI (OVCAR-5 ovarian): 25.8 µM
GI50 (PC-3 prostate): 1.83 µM
TGI (PC-3 prostate): 5.17 µM
GI50 (RPMI-8226 leukemia): 1.33 µM
TGI (RPMI-8226 leukemia): 3.96 µM
GI50 (SK-MEL-28 melanoma): 4.7 µM
TGI (SK-MEL-28 melanoma): 36.9 µM
GI50 (SK-MEL-5 melanoma): 2.86 µM
TGI (SK-MEL-5 melanoma): 13.5 µM
GI50 (SN12C renal): 3.2 µM
TGI (SN12C renal): 75.9 µM
GI50 (TK-10 renal): 11.1 µM
TGI (TK-10 renal): > 100 µM
GI50 (U251 CNS): 3.51 µM
TGI (U251 CNS): 17.3 µM

Cn1c2ccccc2c2c(=O)n(CCCC(=O)NCCc3cnc[nH]3)c3c(-c4ccccc4)nnn3c21
GI50 (HCT-15 colon): 14.6 µM
TGI (HCT-15 colon): 44.1 µM
GI50 (LOX IMVI melanoma): 11.2 µM
TGI (LOX IMVI melanoma): 22.9 µM
GI50 (OVCAR-5 ovarian): 10.8 µM
TGI (OVCAR-5 ovarian): 20.3 µM
GI50 (PC-3 prostate): 9.01 µM
TGI (PC-3 prostate): 20.1 µM
GI50 (RPMI-8226 leukemia): 10.5 µM
TGI (RPMI-8226 leukemia): 28.6 µM
GI50 (SK-MEL-28 melanoma): 8.86 µM
TGI (SK-MEL-28 melanoma): 16.9 µM
GI50 (SK-MEL-5 melanoma): 9.09 µM
TGI (SK-MEL-5 melanoma): 17.2 µM
GI50 (SN12C renal): 8.76 µM
TGI (SN12C renal): 18.7 µM
GI50 (TK-10 renal): 4.8 µM
TGI (TK-10 renal): 11.5 µM
GI50 (U251 CNS): 9.46 µM
TGI (U251 CNS): 18.4 µM

CN(C)C[C@@H]1CCn2cc(c3ccccc32)C2=C(C(=O)NC2=O)c2cn(c3ccccc23)CCO1
GI50 (HCT-15 colon): 1.61 µM
TGI (HCT-15 colon): > 10 µM
GI50 (LOX IMVI melanoma): 1.63 µM
TGI (LOX IMVI melanoma): 3.44 µM
GI50 (OVCAR-5 ovarian): 1.34 µM
TGI (OVCAR-5 ovarian): > 10 µM
GI50 (PC-3 prostate): 1.77 µM
TGI (PC-3 prostate): > 10 µM
GI50 (RPMI-8226 leukemia): 1.13 µM
TGI (RPMI-8226 leukemia): 4.02 µM
GI50 (SK-MEL-28 melanoma): 1.03 µM
TGI (SK-MEL-28 melanoma): 8.13 µM
GI50 (SK-MEL-5 melanoma): 1.39 µM
TGI (SK-MEL-5 melanoma): 7.11 µM
GI50 (SN12C renal): 0.679 µM
TGI (SN12C renal): 5.85 µM
GI50 (TK-10 renal): 2.22 µM
TGI (TK-10 renal): > 10 µM
GI50 (U251 CNS): 1.9 µM
TGI (U251 CNS): > 10 µM

CCc1nc(N)nc(N)c1-c1ccc(N(C)Cc2ccccc2)c([N+](=O)[O-])c1
TGI (HCT-15 colon): 9.86 µM
TGI (LOX IMVI melanoma): 22.2 µM
TGI (OVCAR-5 ovarian): 32.9 µM
TGI (PC-3 prostate): 16.6 µM
TGI (RPMI-8226 leukemia): 4.13 µM
TGI (SK-MEL-28 melanoma): 17 µM
TGI (SK-MEL-5 melanoma): 4.32 µM
TGI (SN12C renal): 41.7 µM
TGI (TK-10 renal): 34.2 µM
TGI (U251 CNS): 24.5 µM

C#Cc1cccc(Nc2ncnc3ccc(-c4cnc(N)nc4)cc23)c1
GI50 (HCT-15 colon): 2.55 µM
TGI (HCT-15 colon): 13.2 µM
GI50 (LOX IMVI melanoma): 2.78 µM
TGI (LOX IMVI melanoma): 11.3 µM
GI50 (OVCAR-5 ovarian): 1.33 µM
TGI (OVCAR-5 ovarian): 14.6 µM
GI50 (PC-3 prostate): 1.62 µM
TGI (PC-3 prostate): 11.3 µM
GI50 (RPMI-8226 leukemia): 1.43 µM
TGI (RPMI-8226 leukemia): 5.41 µM
GI50 (SK-MEL-28 melanoma): 3.2 µM
TGI (SK-MEL-28 melanoma): 16 µM
GI50 (SK-MEL-5 melanoma): 3.34 µM
TGI (SK-MEL-5 melanoma): 12.5 µM
GI50 (SN12C renal): 1.81 µM
TGI (SN12C renal): 12.7 µM
GI50 (TK-10 renal): 0.286 µM
TGI (TK-10 renal): 3.2 µM
GI50 (U251 CNS): 3.18 µM
TGI (U251 CNS): 16.9 µM

CSc1nc(SC)c2c(C)c(Br)[nH]c2n1
TGI (HCT-15 colon): > 100 µM
TGI (LOX IMVI melanoma): > 100 µM
TGI (OVCAR-5 ovarian): > 100 µM
TGI (PC-3 prostate): > 100 µM
TGI (RPMI-8226 leukemia): > 100 µM
TGI (SK-MEL-28 melanoma): > 100 µM
TGI (SK-MEL-5 melanoma): > 100 µM
TGI (SN12C renal): > 100 µM
TGI (TK-10 renal): > 100 µM
TGI (U251 CNS): > 100 µM

CCCCCCCCCCCCSC1=CC(=O)C=CC1=O
GI50 (HCT-15 colon): 1.92 µM
TGI (HCT-15 colon): > 32.4 µM
GI50 (LOX IMVI melanoma): 1.25 µM
TGI (LOX IMVI melanoma): 4.3 µM
GI50 (OVCAR-5 ovarian): 11.8 µM
TGI (OVCAR-5 ovarian): > 42 µM
GI50 (PC-3 prostate): 0.672 µM
TGI (PC-3 prostate): 4.21 µM
GI50 (RPMI-8226 leukemia): 0.804 µM
TGI (RPMI-8226 leukemia): 3.46 µM
GI50 (SK-MEL-28 melanoma): 13.6 µM
TGI (SK-MEL-28 melanoma): > 39.9 µM
GI50 (SK-MEL-5 melanoma): 5.54 µM
TGI (SK-MEL-5 melanoma): 14.3 µM
GI50 (SN12C renal): 3.24 µM
TGI (SN12C renal): 24.7 µM
GI50 (TK-10 renal): 16.3 µM
TGI (TK-10 renal): 37.4 µM
GI50 (U251 CNS): 0.311 µM
TGI (U251 CNS): 4.57 µM

CCc1c2c(nc3ccc(OC(=O)OCc4ccc(B5OC(C)(C)C(C)(C)O5)cc4)cc13)-c1cc3c(c(=O)n1C2)COC(=O)[C@]3(O)CC
GI50 (HCT-15 colon): 0.127 µM
TGI (HCT-15 colon): > 100 µM
GI50 (LOX IMVI melanoma): < 0.01 µM
TGI (LOX IMVI melanoma): 0.196 µM
GI50 (OVCAR-5 ovarian): 0.114 µM
TGI (OVCAR-5 ovarian): 6.23 µM
GI50 (PC-3 prostate): 0.0514 µM
TGI (PC-3 prostate): > 100 µM
GI50 (RPMI-8226 leukemia): 0.224 µM
GI50 (SK-MEL-28 melanoma): 0.262 µM
TGI (SK-MEL-28 melanoma): 7.32 µM
GI50 (SK-MEL-5 melanoma): 0.0217 µM
TGI (SK-MEL-5 melanoma): 0.118 µM
GI50 (SN12C renal): < 0.01 µM
TGI (SN12C renal): > 54.7 µM
GI50 (TK-10 renal): 0.88 µM
TGI (TK-10 renal): > 100 µM
GI50 (U251 CNS): < 0.01 µM
TGI (U251 CNS): > 34.3 µM

CC(C)c1ccc(C(c2c(O)c3ccccc3oc2=O)c2c(O)c3ccccc3oc2=O)cc1
TGI (HCT-15 colon): 46.4 µM
TGI (LOX IMVI melanoma): 33 µM
TGI (OVCAR-5 ovarian): 37.4 µM
TGI (PC-3 prostate): 37.9 µM
TGI (RPMI-8226 leukemia): 45.9 µM
TGI (SK-MEL-28 melanoma): 40 µM
TGI (SK-MEL-5 melanoma): 31.3 µM
TGI (SN12C renal): 48.6 µM
TGI (TK-10 renal): 68 µM
TGI (U251 CNS): 30.1 µM

O=C1c2c(c3c4ccccc4n(CCCCCCN4CCOCC4)c3c3[nH]c4ccccc4c23)C(=O)N1O
GI50 (HCT-15 colon): 3.03 µM
TGI (HCT-15 colon): 12.2 µM
GI50 (LOX IMVI melanoma): 0.21 µM
TGI (LOX IMVI melanoma): 0.736 µM
GI50 (OVCAR-5 ovarian): > 49.3 µM
TGI (OVCAR-5 ovarian): > 75.8 µM
GI50 (PC-3 prostate): 12.1 µM
TGI (PC-3 prostate): > 57 µM
GI50 (RPMI-8226 leukemia): 2.57 µM
TGI (RPMI-8226 leukemia): 7.76 µM
GI50 (SK-MEL-28 melanoma): 1.96 µM
TGI (SK-MEL-28 melanoma): 4.02 µM
GI50 (SK-MEL-5 melanoma): 4.22 µM
TGI (SK-MEL-5 melanoma): 20 µM
GI50 (SN12C renal): 6.86 µM
TGI (SN12C renal): 26.4 µM
GI50 (TK-10 renal): 26.2 µM
TGI (TK-10 renal): 54.8 µM
GI50 (U251 CNS): 1.68 µM
TGI (U251 CNS): 3.22 µM
